Measurements as given in US8557298B2, “Medicaments for chemotherapeutic treatment of disease” (Provectus Pharmatech, Inc., priority 1998, dated 2013).

Assays:
Staphylococcus aureus = format: cell-based
Method: The inventors tested this hypothesis by evaluating the chemotherapeutic properties of Rose Bengal and Erythrosin B on cultures of the bacterium Staphylococcus aureus. […] In both illustrations, test cultures were exposed to the indicated agents at the indicated concentrations for the indicated times; cytotoxicity was subsequently estimated by serial dilution (10×dilution per step) of the treated cell cultures into 96-well plates containing fresh culture media; these samples were then incubated under standard conditions. Viability (e.g., Logs of Growth) for each test culture was then estimated by counting the number of dilution steps resulting in positive cell growth. Cytotoxicity upon exposure to a particular agent is thereby estimated by the reduction in viability relative to unexposed (e.g., control) cultures.

[1] = Toxicology data (LD50), murine administration; format: in vivo; settings: for LD50 p.o.: murine oral (p.o.) administration
[2] = Partition coefficient Kp (n-octanol / phosphate buffered saline); format: physicochemical; settings: n-octanol vs phosphate buffered saline, PBS, pH = 7.4
Method: For example, to a first approximation, an agent's potential for tissue accumulation can be estimated based on the partition coefficient, Kp. This in vitro parameter is purported to have predictive value relating to in vivo agent delivery at the cellular level. […] Kp is determined by measuring the ratio of equilibrium concentrations of an agent in a lipophilic phase (n-octanol) contacted with an aqueous phase (phosphate buffered saline, PBS, pH=7.4).

various murine tumors = settings: within 24 hours
[3] = Tissue pharmacokinetics of Rose Bengal after intraperitoneal injection into tumor-bearing nude mice; format: in vivo
Method: Tissue samples (liver, abdominal wall, and tumor) were immediately obtained from the sacrificed mice, homogenized, centrifuged for 10 minutes at 1520×g, and the resulting supernatant collected and analyzed fluorimetrically. […] At the same time, persistent accumulation occurs in tumor tissue, with greater than 50% of maximum measured agent concentration maintained in such tissues for periods in excess of 24 hours.

[4] = tested on: BNL/SV40 liver cell tumor; assay: Intratumoral/peritumoral injection of 10% Rose Bengal into BNL/SV40 liver cell tumors in nude mice; format: in vivo, nude mice
[5] = Systemic administration of Rose Bengal to obese laboratory mice, tissue accumulation; format: in vivo; settings: aqueous solution, i.p. or p.o.
Text: For example, Rose Bengal's relatively large partition coefficient is indicative of a preference for accumulation in lipophilic tissue, such as cutaneous lipocytes.

[6] = tested on: recurrent aggressive sarcoma tumor; assay: Intratumoral injection of 10% Rose Bengal into naturally-occurring sarcoma in a dog; format: in vivo
[7] = murine intravenous (i.v.) administration

Row | Compound | Cytotoxic effect (reduction in viability, Logs of Growth) (Staphylococcus aureus) | LD50 i.v. [1, 7] | LD50 p.o. [1] | Partition coefficient, Kp [2] | other results
1 | O.O=C([O-])c1ccccc1-c1c2cc(I)c(=O)c(I)c-2oc2c(I)c([O-])c(I)cc12.[Na+].[Na+] [Erythrosin B] | no significant chemotherapeutic response | 370 mg/kg | >1,000 mg/kg | 1.9 | –
2 | CC1(C)C(/C=C/C=C/C=C/C=C2\N(CCCCS(=O)(=O)O)c3ccc4ccccc4c3C2(C)C)=[N+](CCCCS(=O)(=O)[O-])c2ccc3ccccc3c21 [Indocyanine Green, reference compound] | – | – | – | – | Tumor retention after i.t. administration (various murine tumors): substantively migrates out of tumors; LD50 ([1]; mouse, in vivo, murine intravenous (i.v.) administration): 60 mg/kg
3 | O=C1OC2(c3cc(I)c(O)c(I)c3Oc3c2cc(I)c(O)c3I)c2c(Cl)c(Cl)c(Cl)c(Cl)c21 [Rose Bengal, 4,5,6,7-Tetrachloro-2′,4′,5′,7′-tetraiodofluorescein] | marked chemotherapeutic response that is concentration dependent | – | >1,000 mg/kg | 11.5 | Time for concentrations in normal tissue (abdominal wall) and liver to diminish to unmeasurable levels ([3]; i.p., 50-100 μL of 0.5% Rose Bengal in saline, tumor-bearing nude mice): ≤ 24 h; Share of maximum measured agent concentration maintained in tumor tissue ([3]; tumor tissue, periods in excess of 24 hours after i.p. injection): greater than 50%; Effect on tumor growth ([4]; i.t. and p.t. injection of 10% Rose Bengal, over a period of several weeks): stasis, with no significant change in tumor volume; Time to clearance from normal tissue (tumor tissue remained stained) ([4]; mouse, in vivo): ≤ 7 days; Effect on normal tissue and adjacent tumor tissue ([4]; peritumoral injection alone): no significant effect on normal tissue, nor on the adjacent tumor tissue; Retention in normal tissue ([4]; peritumoral injection alone, after 24 hours): no detectable retention in normal tissue; Tissue accumulation after systemic administration [5]: highly selective accumulation of said agent in certain tissues; Tumor response at follow-up examination ([6]; after 19 days): further measurable decrease in tumor size; Tumor response at follow-up examination ([6]; approximately 5 cc of 10% solution into approximately 20 cc tumor, after five days): measurable decrease in tumor density along with significant edema and apparent necrosis of large sections of the tumor; Side-effects in healthy tissue surrounding the tumor ([6]; intratumoral injection, dog): no significant side-effects
4 | O=C([O-])c1c(Cl)c(Cl)c(Cl)c(Cl)c1-c1c2cc(Br)c(=O)c(Br)c-2oc2c(Br)c([O-])c(Br)cc12.[Na+].[Na+] [Phloxine B] | – | 310 mg/kg | 310 mg/kg | 1.1 | –
5 | CC1=C(CCC(=O)O)c2cc3[nH]c(cc4nc(cc5[nH]c(cc1n2)c(C)c5C(C)O)C(C)=C4C(C)O)c(C)c3CCC(=O)O (stereo not drawn) [Porphyrin HpIX, reference compound] | – | – | >1,000 mg/kg | 1.5 | –
